Test results taken from ChEMBL document CHEMBL1133113, “Fast calculation of molecular polar surface area as a sum of fragment-based contributions and its application to the prediction of drug transport properties” (J Med Chem, 2000).

Test: Percent of drug absorbed by human intestine after oral administration
Assay type: ADME, organism-based
Details: in vivo

| Structure (SMILES) | Fa |
| --- | --- |
| C=CCc1ccccc1OCC(O)CNC(C)C (centres undefined) [ALPRENOLOL] | 96% |
| Cc1cc(=O)n(-c2ccccc2)n1C [ANTIPYRINE] | 97% |
| O=C(O)P(=O)(O)O [FOSCARNET] | 17% |
| OC[C@H]1O[C@@H](O[C@@H]2[C@@H](CO)O[C@](O)(CO)[C@H]2O)[C@H](O)[C@@H](O)[C@H]1O [LACTULOSE] | 0.6% |
| OC[C@@H](O)[C@@H](O)[C@H](O)[C@H](O)CO [MANNITOL] | 26% |
| Cc1ccccc1N1C(=O)c2cc(S(N)(=O)=O)c(Cl)cc2NC1C (centres undefined) [METOLAZONE] | 64% |
| O=C(O)c1cc(/N=N/c2ccc(O)c(C(=O)O)c2)ccc1O [OLSALAZINE] | 2.3% |
| C=CCOc1ccccc1OCC(O)CNC(C)C (centres undefined) [OXPRENOLOL] | 97% |
| CC(C)NCC(O)COc1cccc2[nH]ccc12 (centres undefined) [PINDOLOL] | 92% |
| CC(=O)Nc1ccc(OCC(O)CNC(C)C)cc1 (centres undefined) [PRACTOLOL] | 95% |
| OC[C@H]1O[C@H](OC[C@H]2O[C@H](O[C@]3(CO)O[C@H](CO)[C@@H](O)[C@@H]3O)[C@H](O)[C@@H](O)[C@@H]2O)[C@H](O)[C@@H](O)[C@H]1O [RAFFINOSE] | 0.3% |
| O=C(O)c1cc(/N=N/c2ccc(S(=O)(=O)Nc3ccccn3)cc2)ccc1O [SULFASALAZINE] | 12% |
| CCN1CCCC1CNC(=O)c1cc(S(N)(=O)=O)ccc1OC (centres undefined) [SULPIRIDE] | 36% |
| NC[C@H]1CC[C@H](C(=O)O)CC1 [TRANEXAMIC ACID] | 55% |
